Values of other authors as cited in patent US6090852A, “Substituted alpha-aminosulphonyl-acetohydroxamic acids as therapeutic agents” (Pfizer Inc, priority 1998, dated 2000).

Test system: human ovarian carcinoma xenografts
Details: mice carrying human ovarian carcinoma xenografts; Cancer Res., 1993, 53, 2087

For `CNC(=O)[C@H](Cc1ccccc1)NC(=O)[C@H](CC(C)C)[C@H](CSc1cccs1)C(=O)NO` [BB-94], the survival is given as “prolong the survival” and the tumour burden is given as “decrease the tumour burden”.
